The results in this text go back to patent US11999746B2, “Compounds” (GlaxoSmithKline Intellectual Property Development Limited, priority 2014, dated 2024).

Structures are written as SMILES.

The target in one assay is T1, Lp-PLA2 in human plasma (Homo sapiens, UniProt Q13093).
T1 construct: from tissue; host or cells: pooled human plasma
T1 sequence (Q13093 22-441): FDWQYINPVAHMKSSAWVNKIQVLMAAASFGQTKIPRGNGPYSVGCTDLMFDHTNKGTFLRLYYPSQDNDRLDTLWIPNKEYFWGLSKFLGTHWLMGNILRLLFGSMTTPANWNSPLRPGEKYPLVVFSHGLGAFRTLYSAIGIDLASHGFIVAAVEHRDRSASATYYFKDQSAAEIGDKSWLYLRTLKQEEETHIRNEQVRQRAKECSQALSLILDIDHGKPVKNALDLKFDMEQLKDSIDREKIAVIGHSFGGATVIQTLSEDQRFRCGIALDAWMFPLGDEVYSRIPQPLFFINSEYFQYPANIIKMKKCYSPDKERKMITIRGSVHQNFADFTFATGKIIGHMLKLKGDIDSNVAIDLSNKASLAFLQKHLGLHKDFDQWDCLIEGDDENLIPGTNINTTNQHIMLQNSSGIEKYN
The assay is described as follows: (3a) Lp-PLA2 human plasma Thio-PAF assay. The assay is classed as biochemical. The conditions noted are these: (3a) Thio-PAF assay, pooled human plasma; Examples 1-265 and 413-430 were tested here; read-out: pIC50 in the Lp-PLA2 human plasma assay (converted). The method, boiled down:
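Pooled human plasma preincubated 30 min with serially diluted compound, then given 2-thio-PAF substrate with CPM and NEM in 50 mM HEPES pH 7.4, 150 mM NaCl, 1 mM CHAPS. Reaction quenched with TFA after 2 min; CPM thiol-adduct fluorescence read at ex 380/em 485 after 40 min; pIC50 reported.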

The target of assay [1] is T2, recombinant human Lp-PLA2 (Homo sapiens, UniProt Q13093).
T2 sequence (Q13093 22-441): T1 sequence (Q13093 22-441)
In words: (1a) PED6 assay, recombinant human Lp-PLA2 (rhLp-PLA2). The assay is classed as biochemical. As to conditions: Examples 1-167 and 413-430 were tested here, one experiment or average of multiple experiments, read-out: rhLp-PLA2 (pIC50) (converted). Summed up:
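PED6 (2 μM final after 1:1 addition of 4 μM stock) cleavage by rhLp-PLA2 (4 nM working solution) in 50 mM HEPES pH 7.4, 150 mM NaCl, 1 mM CHAPS; compounds preincubated with enzyme 30 minutes, reaction 20 min at room temperature. Fluorescence at ex 480/em 540; pIC50 from curve fit.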

Take `O=c1nc(OCc2cccc(F)c2)cc2n1C[C@@H]1COCCN21` [Example E132, (R)-7-((3-fluorobenzyl)oxy)-3,4,11,11a-tetrahydropyrimido[6′,1′:2,3]imidazo[5,1-c][1,4] oxazin-9(1H)-one]: the IC50 is at most 10000 nM on Lp-PLA2 in human plasma and at most 100 nM in assay [1].

Take `O=c1nc(OCc2cc(F)cc(F)c2)cc2n1C[C@H]1CCCCN21` [Example E53, (R)-3-((3,5-Difluorobenzyl)oxy)-6,7,8,9,9a,10-hexahydro-1H-pyrido[1′,2′:3,4]imidazo[1,2-c] pyrimidin-1-one]: the IC50 on Lp-PLA2 in human plasma was at most 10000 nM; in assay [1], at most 100 nM.

On to `O=c1nc(OCc2cccc(F)c2)cc2n1C[C@H]1COCN21` [Example E148, (S)-6-((3-fluorobenzyl)oxy)-10,10a-dihydro-1H-oxazolo[3′,4′:3,4]imidazo[1,2-c]pyrimidin-8(3H)-one], for which the IC50 on Lp-PLA2 in human plasma was at most 10000 nM; in assay [1], at most 100 nM.

On to `N#Cc1cc(COc2cc3n(c(=O)n2)C[C@@H]2CCCN32)ccc1Oc1cccc(F)c1` [Example E86, (S)-2-(3-fluorophenoxy)-5-(((1-oxo-1,6,7,8,8a,9-hexahydropyrrolo[1′,2′:3,4]imidazo[1,2-c]pyrimidin-3-yl)oxy)methyl)benzonitrile], for which the IC50 at Lp-PLA2 in human plasma is at most 10000 nM; in assay [1], at most 100 nM.

For `O=c1nc(OCc2cc(F)c(Oc3ccnc(C(F)(F)F)c3)c(F)c2)cc2n1C[C@@H]1CCOCN21` [Example E134, (S)-3-((3,5-difluoro-4-((2-(trifluoromethyl)pyridin-4-yl)oxy)benzyl)oxy)-8,9,9a,10-tetrahydropyrimido[6′,1′:2,3]imidazo[1,5-c][1,3]oxazin-1(6H)-one], the IC50 on Lp-PLA2 in human plasma is at most 100 nM; in assay [1] it was at most 1 nM.

Consider `O=c1nc(OCc2cc(F)c(OC3(CCF)CC3)c(F)c2)cc2n1C[C@H]1CCCN21` [Example E105, (R)-3-((3,5-difluoro-4-(1-(2-fluoroethyl)cyclopropoxy)benzyl)oxy)-7,8,8a,9-tetrahydro pyrrolo[1′,2′:3,4]imidazo[1,2-c]pyrimidin-1(6H)-one], for which the IC50 on Lp-PLA2 in human plasma was at most 10000 nM; in assay [1] it was at most 100 nM.

Take `CN1c2cc(OCc3cccc(F)c3F)nc(=O)n2CC12CCC2` [Example 420, 7′4(2,3-difluorobenzyhoxy)-1-methyl-1H-spiro[cyclobutane-1,2′-imidazo[1,2-c]pyrimidin]-5′(3′H)-one]: the IC50 at Lp-PLA2 in human plasma is at most 10000 nM; in assay [1] it was at most 100 nM.

In the case of `O=c1nc(OCc2cc(F)c(Oc3ccnc(C(F)(F)F)c3)c(F)c2)cc2n1CC1OCCCN21` (single isomer, unassigned) [Example E162, 7-((3,5-difluoro-4-((2-(trifluoromethyl)pyridin-4-yl)oxy)benzyl)oxy)-3,4,11,11a-tetrahydropyrimido[6′,1′:2,3]imidazo[5,1-b][1,3]oxazin-9(2H)-one], the IC50 at Lp-PLA2 in human plasma is at most 100 nM; in assay [1], at most 1 nM.

`CN1c2cc(OCc3cc(F)c(F)c(F)c3)nc(=O)n2CC12CCC2` [Example 423, 1′-methyl-7′-((3,4,5-trifluorobenzyl)oxy)-1′H-spiro[cyclobutane-1,2′-imidazo[1,2-c]pyrimidin]-5′(3′H)-one]: the IC50 (at Lp-PLA2 in human plasma; in assay [1]) was at most 100 nM in each case.

Consider `O=c1nc(OCc2cc(F)c(OC3(CCF)CC3)c(F)c2)cc2n1C[C@H]1CCCCN21` [Example E62, (R)-3-((3,5-Difluoro-4-(1-(2-fluoroethyl)cyclopropoxy)benzyl)oxy)-6,7,8,9,9a,10-hexahydro-1H-pyrido[1′,2′:3,4]imidazo[1,2-c]pyrimidin-1-one], for which the IC50 at Lp-PLA2 in human plasma is at most 10000 nM; in assay [1] it was at most 100 nM.

In the case of `O=c1nc(OCc2cc(F)c(Oc3ccnc(C(F)(F)F)c3)c(F)c2)cc2n1CC1OCCN21` (single isomer, unassigned) [Example E164, 6-((3,5-difluoro-4-((2-(trifluoromethyl)pyridin-4-yl)oxy)benzyl)oxy)-10,10a-dihydro-2H-oxazolo[3′,2′:3,4]imidazo[1,2-c]pyrimidin-8(3H)-one], the IC50 is at most 100 nM at Lp-PLA2 in human plasma and at most 1 nM in assay [1].

Regarding `Cn1cc(Oc2ccc(COc3cc4n(c(=O)n3)C[C@@H]3CCCCN43)cc2F)cn1` [Example E51, (S)-3-((3-fluoro-4-((1-methyl-1H-pyrazol-4-yl)oxy)benzyl)oxy)-6,7,8,9,9a,10-hexahydro-1H-pyrido[1,2′:3,4]imidazo[1,2-c]pyrimidin-1-one], the IC50 at Lp-PLA2 in human plasma is at most 10000 nM; in assay [1], at most 100 nM.

With `CCn1cc(Oc2c(F)cc(COc3cc4n(c(=O)n3)CC3CCCN43)cc2F)cn1` (stereo not shown) [Example E64, 3-((4-((1-Ethyl-1H-pyrazol-4-yl)oxy)-3,5-difluorobenzyl)oxy)-7,8,8a, 9-tetrahydropyrrolo[1′,2′:3,4]imidazo[1,2-c]pyrimidin-1(6H)-one], the IC50 on Lp-PLA2 in human plasma was at most 10000 nM; in assay [1], at most 100 nM.

Regarding `O=c1nc(OCc2ccc(Oc3cnc(C(F)(F)F)nc3)c(F)c2)cc2n1CC1CCCCN21` (stereo not shown) [Example E46, 3-((3-Fluoro-4-((2-(trifluoromethyl)pyrimidin-5-yl)oxy)benzyl)oxy)-6,7,8,9,9a,10-hexahydro-1H-pyrido[1′,2′:3,4]imidazo[1,2-c]pyrimidin-1-one], the IC50 on Lp-PLA2 in human plasma was at most 100 nM; in assay [1], at most 1 nM.

Take `Cc1ccc(Oc2c(F)cc(COc3cc4n(c(=O)n3)C[C@@H]3COCCN43)cc2F)cn1` [Example E118, (R)-7-((3,5-difluoro-4-((6-methylpyridin-3-yl)oxy)benzyl)oxy)-3,4,11,11atetrahydropyrimido[6′,1′:2,3]imidazo[5,1-c][1,4]oxazin-9(1H)-one]: the IC50 is at most 100 nM at Lp-PLA2 in human plasma and at most 1 nM in assay [1].

Turning to `O=c1nc(OCc2cc(F)c(Oc3cnn(C(F)(F)F)c3)c(F)c2)cc2n1C[C@H]1COCN21` [Example E151, (S)-6-((3,5-difluoro-4-((1-(trifluoromethyl)-1H-pyrazol-4-yl)oxy)benzyl)oxy)-10,10a-dihydro-1H-oxazolo[3′,4′:3,4]imidazo[1,2-c]pyrimidin-8(3H)-one], the results for the IC50 (on Lp-PLA2 in human plasma; in assay [1]) were at most 100 nM and at most 1 nM, respectively.

`O=c1nc(OCc2cccc(F)c2)cc2n1C[C@H]1CCCCN21` [Example E52, (R)-3-((3-Fluorobenzyl)oxy)-6,7,8,9,9a,10-hexahydro-1H-pyrido[1′,2′:3,4]imidazo[1,2-c] pyrimidin-1-one]: the IC50 (at Lp-PLA2 in human plasma; in assay [1]) was at most 100 nM in each case.

Consider `CCn1cc(Oc2c(F)cc(COc3cc4n(c(=O)n3)C[C@H]3COCN43)cc2F)cn1` [Example E160, (S)-6-((4-((1-ethyl-1H-pyrazol-4-yl)oxy)-3,5-difluorobenzyl)oxy)-10,10a-dihydro-1H-oxazolo[3′,4′:3,4]imidazo[1,2-c]pyrimidin-8(3H)-one], for which the IC50 at Lp-PLA2 in human plasma is at most 10000 nM; in assay [1], at most 100 nM.

In the case of `CN1c2cc(OCc3cc(F)c(F)cc3F)nc(=O)n2CC12CCCCC2` [Example 428, 1-methyl-7′-((2,4,5-trifluorobenzyl)oxy)-1′H-spiro[cyclohexane-1,2′-imidazo[1,2-c]pyrimidin]-5′(3′H)-one], the IC50 is at most 10000 nM at Lp-PLA2 in human plasma and at most 100 nM in assay [1].

Take `O=c1nc(OCc2ccc(F)cc2F)cc2n1C[C@@H]1COCCN21` [Example E130, (R)-7-((2,4-difluorobenzyl)oxy)-3,4,11,11a-tetrahydropyrimido[6′,1′:2,3]imidazo[5,1-c][1,4] oxazin-9(1H)-one]: the IC50 at Lp-PLA2 in human plasma is at most 10000 nM; in assay [1], at most 100 nM.
